ChEMBL document CHEMBL1201862, “PubChem BioAssay data set” (2004)
Several values for one entry are separate records, joined by “and”; a condition that tells them apart may be missing. Equal values may be shown once. Where a name gives a salt, the structure may show the parent alone. Blank lines part the entries; values can stand above or below the molecule they belong to. Activity calls are given as the source filed them.

Legend:
Large T antigen = Large T antigen (Simian virus 40, UniProt P03070); format: functional, Betapolyomavirus macacae;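 further: Confirmatory-stage PubChem screen for compounds that inhibit SV40 T antigen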
Chain of Large T antigen (P03070 whole entry): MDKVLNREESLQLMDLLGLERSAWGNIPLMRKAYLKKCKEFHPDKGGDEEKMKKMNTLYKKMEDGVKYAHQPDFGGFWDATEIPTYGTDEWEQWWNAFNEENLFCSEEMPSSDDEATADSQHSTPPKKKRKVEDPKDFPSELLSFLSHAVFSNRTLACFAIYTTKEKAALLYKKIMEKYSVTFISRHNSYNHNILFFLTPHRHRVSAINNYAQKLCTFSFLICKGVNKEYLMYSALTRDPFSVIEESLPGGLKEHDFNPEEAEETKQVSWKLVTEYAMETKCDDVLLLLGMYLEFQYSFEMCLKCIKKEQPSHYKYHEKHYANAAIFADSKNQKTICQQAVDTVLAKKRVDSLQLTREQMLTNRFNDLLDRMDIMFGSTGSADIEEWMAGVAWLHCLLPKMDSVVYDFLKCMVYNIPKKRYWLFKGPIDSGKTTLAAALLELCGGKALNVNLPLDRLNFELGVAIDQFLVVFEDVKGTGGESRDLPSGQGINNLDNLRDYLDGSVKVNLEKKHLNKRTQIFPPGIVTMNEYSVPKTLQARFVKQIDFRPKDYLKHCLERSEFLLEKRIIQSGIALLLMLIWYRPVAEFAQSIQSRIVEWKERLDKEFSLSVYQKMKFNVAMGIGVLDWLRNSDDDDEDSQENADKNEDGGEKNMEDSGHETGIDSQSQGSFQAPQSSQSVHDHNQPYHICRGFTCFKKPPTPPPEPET

[1] = molecular target: Sphingosine 1-phosphate receptor 4 (Homo sapiens, UniProt O95977); assay: Fluorescence dose response cell-based high throughput screening assay for agonists of the Sphingosine 1-Phosphate Receptor 4 (S1P4). [Related pubchem assays: 1509 (Primary screen.), 1523 (Confirmation screen in triplicates.)]; format: functional
Chain of Sphingosine 1-phosphate receptor 4 (O95977 whole entry): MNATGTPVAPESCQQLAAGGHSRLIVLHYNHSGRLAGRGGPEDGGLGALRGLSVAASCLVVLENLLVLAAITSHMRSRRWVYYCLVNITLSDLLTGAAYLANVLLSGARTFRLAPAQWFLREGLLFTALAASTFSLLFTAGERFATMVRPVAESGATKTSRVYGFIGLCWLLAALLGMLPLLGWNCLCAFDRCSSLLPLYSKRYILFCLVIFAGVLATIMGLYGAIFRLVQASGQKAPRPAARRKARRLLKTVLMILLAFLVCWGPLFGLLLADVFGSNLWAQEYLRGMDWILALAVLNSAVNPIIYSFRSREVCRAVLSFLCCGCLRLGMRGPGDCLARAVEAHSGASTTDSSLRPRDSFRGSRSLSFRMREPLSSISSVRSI

[2] = molecular target: Sphingosine 1-phosphate receptor 1 (Homo sapiens, UniProt P21453); assay: Fluorescence-based counterscreen assay for S1P4 agonists: Cell-based dose response high throughput screening assay to identify agonists of the Sphingosine 1-Phosphate Receptor 1 (S1P1). [Related pubchem assays (depositor defined):AID1509, AID1523, AID1801, AID463107, AID463118, AID463119, AID463122, AID463123, AID463129, AID463225, AID504400, AID504460]; format: functional
[3] = molecular target: T1, E3 ubiquitin-protein ligase XIAP (Homo sapiens, UniProt P98170); assay: Counter Screen using XIAP-Bir3 for Chemical Antagonists of Bir1/2 domains of IAP-family anti-apoptotic proteins. [Related pubchem assays (depositor defined):AID1018, AID1449, AID1514, AID1638, AID1749, AID1750, AID488957, AID488963]
T1 sequence (P98170 whole entry): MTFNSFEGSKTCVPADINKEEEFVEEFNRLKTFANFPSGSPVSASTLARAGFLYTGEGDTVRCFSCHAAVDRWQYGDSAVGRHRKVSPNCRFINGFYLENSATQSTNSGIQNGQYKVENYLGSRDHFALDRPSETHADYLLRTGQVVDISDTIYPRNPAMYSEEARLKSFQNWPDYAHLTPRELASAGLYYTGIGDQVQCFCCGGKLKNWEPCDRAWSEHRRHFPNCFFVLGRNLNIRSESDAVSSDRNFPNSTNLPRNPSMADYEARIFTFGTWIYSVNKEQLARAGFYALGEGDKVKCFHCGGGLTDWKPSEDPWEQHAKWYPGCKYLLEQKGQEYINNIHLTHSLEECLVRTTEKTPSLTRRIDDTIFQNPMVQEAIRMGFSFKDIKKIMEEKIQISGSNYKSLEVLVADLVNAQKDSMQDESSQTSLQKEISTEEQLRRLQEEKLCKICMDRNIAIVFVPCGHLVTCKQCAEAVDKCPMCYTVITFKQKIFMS

[4] = molecular target: T1, E3 ubiquitin-protein ligase XIAP; assay: small molecules displacing peptide from XIAP – biochemical, IAP family, fluorescence polarization (AID 1018); format: functional
[5] = molecular target: Peroxisome proliferator-activated receptor gamma/Nuclear receptor coactivator 3 (Homo sapiens, UniProt P37231); assay: (§1) TR-FRET dose response biochemical High Throughput Screening assay for agonists of the steroid receptor coactivator 3 (SRC-3) recruitment by the peroxisome proliferator-activated receptor gamma (PPAR gamma): non-selective agonists. [Related pubchem assays: 1301 (Confirmation screen.), 1048 (Primary screen.)]; format: functional
[6] = molecular target: Peroxisome proliferator-activated receptor gamma/Nuclear receptor coactivator 1 (Homo sapiens, UniProt P37231); assay: as §1, with “1 (SRC-1)” for “3 (SRC-3)”, “assays (depositor defined):AID1300, AID1808, AID504735, AID631]” for “assays: 1301 (Confirmation screen.), 1048 (Primary screen.)]”; format: protein assay
[7] = molecular target: Peroxisome proliferator-activated receptor gamma/Nuclear receptor coactivator 2 (Homo sapiens, UniProt P37231); assay: TR-FRET dose response biochemical High Throughput Screening assay for agonists of the steroid receptor coactivator 2 (SRC-2) recruitment by the peroxisome proliferator-activated receptor gamma (PPAR gamma): non-selective agonists. [Related pubchem assays: 1297, 1032 ]; format: functional
[8] = molecular target: Protein-arginine deiminase type-4 (Homo sapiens, UniProt Q9UM07); assay: IC50 against protein arginine deiminase 4 – biochemical, fluorescence readout, dose response (AID 492970)
[9] = molecular target: T2, Kappa-type opioid receptor (Homo sapiens, UniProt P41145); assay: SAR analysis of small molecule agonists of the kappa opioid receptor via a luminescent beta-arrestin assay - Set 3. [Related pubchem assays (depositor defined):AID1777, AID1785, AID1786, AID1966, AID2133, AID2136, AID2284, AID2500]; format: functional
T2 sequence (P41145 whole entry): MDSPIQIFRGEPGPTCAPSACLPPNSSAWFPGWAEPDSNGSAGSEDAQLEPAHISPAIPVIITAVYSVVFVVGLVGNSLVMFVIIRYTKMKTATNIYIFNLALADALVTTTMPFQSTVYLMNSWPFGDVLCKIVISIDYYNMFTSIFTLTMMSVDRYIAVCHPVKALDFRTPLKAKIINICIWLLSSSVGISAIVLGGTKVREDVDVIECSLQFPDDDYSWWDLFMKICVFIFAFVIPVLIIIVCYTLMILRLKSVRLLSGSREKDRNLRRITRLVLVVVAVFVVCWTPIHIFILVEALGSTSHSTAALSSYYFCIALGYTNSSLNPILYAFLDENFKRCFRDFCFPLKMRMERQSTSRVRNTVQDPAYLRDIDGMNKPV

[10] = molecular target: Delta-type opioid receptor (Homo sapiens, UniProt P41143); assay: SAR Analysis of Agonists of the DOR Receptor using an Image-Based Assay - Set 3. [Related pubchem assays (depositor defined):AID1777, AID1786]; format: functional
Chain of Delta-type opioid receptor (P41143 whole entry): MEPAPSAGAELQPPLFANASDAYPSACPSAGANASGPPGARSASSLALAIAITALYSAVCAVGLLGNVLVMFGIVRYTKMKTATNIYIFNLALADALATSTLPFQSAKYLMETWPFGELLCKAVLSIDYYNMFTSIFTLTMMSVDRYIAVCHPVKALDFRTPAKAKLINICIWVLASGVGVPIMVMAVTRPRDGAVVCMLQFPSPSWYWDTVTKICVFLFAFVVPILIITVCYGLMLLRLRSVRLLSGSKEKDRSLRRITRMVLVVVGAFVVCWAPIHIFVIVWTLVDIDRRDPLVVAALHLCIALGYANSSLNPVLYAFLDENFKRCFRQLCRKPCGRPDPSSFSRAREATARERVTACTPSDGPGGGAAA

Mu-type opioid receptor [11] = molecular target: T3, Mu-type opioid receptor (Homo sapiens, UniProt P35372); assay: SAR Analysis of Agonists of the MOR Receptor using an Image-Based Assay - Set 3. [Related pubchem assays (depositor defined):AID1777, AID1785, AID1786, AID1966, AID2133, AID2136, AID2284, AID2285, AID2352]; format: functional
T3 sequence (P35372 whole entry): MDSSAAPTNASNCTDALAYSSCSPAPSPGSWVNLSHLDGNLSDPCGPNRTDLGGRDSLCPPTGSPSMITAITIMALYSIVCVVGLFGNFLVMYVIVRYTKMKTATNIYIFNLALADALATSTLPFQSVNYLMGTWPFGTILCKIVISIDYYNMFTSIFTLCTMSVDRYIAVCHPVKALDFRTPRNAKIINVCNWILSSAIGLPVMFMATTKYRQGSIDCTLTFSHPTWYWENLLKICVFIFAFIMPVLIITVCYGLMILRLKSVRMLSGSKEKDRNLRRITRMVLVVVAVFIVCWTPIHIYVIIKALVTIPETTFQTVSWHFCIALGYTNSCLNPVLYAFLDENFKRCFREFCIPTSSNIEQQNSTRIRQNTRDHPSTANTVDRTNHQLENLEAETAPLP

[12] = molecular target: T2, Kappa-type opioid receptor; assay: kappa opioid receptor activation by imaging – image-based, set 3, SAR follow-up (AID 488833); format: functional
[13] = molecular target: T4, Mannose-6-phosphate isomerase (Homo sapiens, UniProt P34949); assay: MPI inhibition at elevated mannose 6-phosphate – biochemical, fluorescence intensity, high mannose 6-phosphate, primary screen (AID 1220)
T4 sequence (P34949 whole entry): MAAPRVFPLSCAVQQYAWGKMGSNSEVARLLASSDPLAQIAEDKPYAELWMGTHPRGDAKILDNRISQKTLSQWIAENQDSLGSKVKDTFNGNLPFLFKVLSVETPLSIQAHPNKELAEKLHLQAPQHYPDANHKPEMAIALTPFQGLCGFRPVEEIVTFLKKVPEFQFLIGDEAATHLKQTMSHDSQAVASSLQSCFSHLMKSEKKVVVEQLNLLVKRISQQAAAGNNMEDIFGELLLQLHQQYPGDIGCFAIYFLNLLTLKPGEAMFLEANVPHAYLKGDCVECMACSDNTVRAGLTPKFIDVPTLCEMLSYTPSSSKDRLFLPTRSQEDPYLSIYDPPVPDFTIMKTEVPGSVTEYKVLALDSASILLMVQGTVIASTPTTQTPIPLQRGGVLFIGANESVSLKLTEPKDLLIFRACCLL

[14] = molecular target: Induced myeloid leukemia cell differentiation protein Mcl-1 (Homo sapiens, UniProt Q07820); format: functional
Chain of Induced myeloid leukemia cell differentiation protein Mcl-1 (Q07820 whole entry): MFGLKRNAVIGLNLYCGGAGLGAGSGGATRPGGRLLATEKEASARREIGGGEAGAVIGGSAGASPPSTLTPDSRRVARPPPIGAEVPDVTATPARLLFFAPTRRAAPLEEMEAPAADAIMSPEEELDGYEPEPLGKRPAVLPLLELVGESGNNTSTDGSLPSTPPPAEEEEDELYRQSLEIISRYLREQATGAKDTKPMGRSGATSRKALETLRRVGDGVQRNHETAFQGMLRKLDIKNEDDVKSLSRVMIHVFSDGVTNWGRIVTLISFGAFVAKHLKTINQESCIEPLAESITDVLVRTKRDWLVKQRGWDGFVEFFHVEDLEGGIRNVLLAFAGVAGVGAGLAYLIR

[15] = molecular target: T5, Zinc finger protein mex-5 (Caenorhabditis elegans, UniProt Q9XUB2); assay: potency of MEX-5 RNA-binding blockers – biochemical, C. elegans, fluorescence polarization, dose response (AID 1960)
T5 sequence (Q9XUB2 whole entry): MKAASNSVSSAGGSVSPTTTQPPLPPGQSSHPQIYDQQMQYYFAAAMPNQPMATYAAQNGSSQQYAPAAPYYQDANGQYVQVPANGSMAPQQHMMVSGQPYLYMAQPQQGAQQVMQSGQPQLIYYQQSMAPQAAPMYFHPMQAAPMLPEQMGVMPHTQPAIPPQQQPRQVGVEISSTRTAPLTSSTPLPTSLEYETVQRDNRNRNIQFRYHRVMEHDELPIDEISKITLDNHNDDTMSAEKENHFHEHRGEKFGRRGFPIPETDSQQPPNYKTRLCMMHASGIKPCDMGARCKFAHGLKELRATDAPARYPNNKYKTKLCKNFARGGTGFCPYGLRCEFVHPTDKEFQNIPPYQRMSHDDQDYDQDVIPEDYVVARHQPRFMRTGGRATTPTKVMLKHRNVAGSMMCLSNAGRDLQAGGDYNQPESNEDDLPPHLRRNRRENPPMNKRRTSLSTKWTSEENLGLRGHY

[16] = molecular target: T6, RNA-binding protein pos-1 (Caenorhabditis elegans, UniProt G5EF15); assay: disruptors of C. elegans POS-1 RNA interaction – biochemical, fluorescence polarization, dose response (AID 1964);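 further: purified POS-1 fused to maltose binding protein made in E. coli; potency of compounds blocking POS-1 binding to fluorescent RNA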
T6 sequence (G5EF15 whole entry): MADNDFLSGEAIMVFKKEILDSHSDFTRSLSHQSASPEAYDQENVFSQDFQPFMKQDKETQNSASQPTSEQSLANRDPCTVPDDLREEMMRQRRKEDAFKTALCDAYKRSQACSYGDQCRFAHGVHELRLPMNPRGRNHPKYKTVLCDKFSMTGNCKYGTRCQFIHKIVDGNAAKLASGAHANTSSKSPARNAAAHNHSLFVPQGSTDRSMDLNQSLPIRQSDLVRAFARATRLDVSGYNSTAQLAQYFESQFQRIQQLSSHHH

[17] = molecular target: T7, Runt-related transcription factor 1/Core-binding factor subunit beta (Homo sapiens, UniProt Q01196+Q13951); assay: disruptors of Runt domain/CBFb-SMMHC interaction – biochemical, FRET, Cerulean-Runt, Venus-CBFb-SMMHC, uHTS, […] (AID 1434); format: protein assay
T7 sequence (Q01196 whole entry, the tested form may be a part): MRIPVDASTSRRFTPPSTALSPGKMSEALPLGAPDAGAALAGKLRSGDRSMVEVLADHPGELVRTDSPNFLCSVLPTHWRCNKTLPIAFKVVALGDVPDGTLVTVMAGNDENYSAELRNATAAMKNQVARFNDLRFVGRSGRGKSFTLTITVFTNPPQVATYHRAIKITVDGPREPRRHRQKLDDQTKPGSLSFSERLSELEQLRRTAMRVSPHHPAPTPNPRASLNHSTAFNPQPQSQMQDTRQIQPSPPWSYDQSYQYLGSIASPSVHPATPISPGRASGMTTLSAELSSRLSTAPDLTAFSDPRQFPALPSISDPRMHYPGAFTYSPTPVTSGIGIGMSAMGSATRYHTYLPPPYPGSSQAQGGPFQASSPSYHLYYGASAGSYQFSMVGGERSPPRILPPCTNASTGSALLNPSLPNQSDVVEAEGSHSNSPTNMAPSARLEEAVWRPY
T7 sequence (Q13951 whole entry, the tested form may be a part): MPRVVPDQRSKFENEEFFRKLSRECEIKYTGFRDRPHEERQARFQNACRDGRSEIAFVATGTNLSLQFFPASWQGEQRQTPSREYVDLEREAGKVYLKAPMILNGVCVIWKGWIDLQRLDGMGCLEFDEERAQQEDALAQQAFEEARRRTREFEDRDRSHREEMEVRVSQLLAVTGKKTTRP

[18] = viability loss in THP-1 monocytes – THP-1 cells, cytotoxicity control for Vif-APOBEC3G degradation inhibitor project, dose response (AID 1117359); format: functional; conditions: THP-1
[19] = molecular target: Glucose-6-phosphate 1-dehydrogenase (Homo sapiens, UniProt P11413); assay: inhibition of Homo sapiens G6PD, dose series – biochemical, fluorescence, selectivity assay for P. falciparum G6PD inhibitor project, dose response (AID 504792); format: functional
[20] = molecular target: DNA dC->dU-editing enzyme APOBEC-3G (Homo sapiens, UniProt Q9HC16); assay: Dose Response confirmation of small molecule APOBEC3G DNA Deaminase Inhibitors via a fluorescence-based single-stranded DNA deaminase assay. [Related pubchem assays (depositor defined):AID493012, AID493028]; format: functional
[21] = molecular target: Eukaryotic translation initiation factor 4E (Mus musculus, UniProt P63073); assay: blockers of eIF4G binding by eIF4E – biochemical, TR-FRET, dose response (AID 855); format: functional;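 further: potency for disrupting eIF4E binding to eIF4GI seen as loss of FRET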
Chain of Eukaryotic translation initiation factor 4E (P63073 whole entry): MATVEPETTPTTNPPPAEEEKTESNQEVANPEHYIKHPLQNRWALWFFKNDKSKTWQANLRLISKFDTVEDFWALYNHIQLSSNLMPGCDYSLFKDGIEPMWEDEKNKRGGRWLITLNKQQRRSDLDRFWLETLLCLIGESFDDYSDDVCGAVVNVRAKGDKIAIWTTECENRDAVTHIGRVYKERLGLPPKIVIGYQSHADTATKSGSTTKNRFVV

[22] = molecular target: 5-hydroxytryptamine receptor 2A (Mus musculus, UniProt P35363); format: functional, cell-based;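 further: CHO-K1 cells with tagged receptor and beta-arrestin; agonist potency measured as compound-induced activation of the receptor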
Chain of 5-hydroxytryptamine receptor 2A (P35363 whole entry, the tested form may be a part): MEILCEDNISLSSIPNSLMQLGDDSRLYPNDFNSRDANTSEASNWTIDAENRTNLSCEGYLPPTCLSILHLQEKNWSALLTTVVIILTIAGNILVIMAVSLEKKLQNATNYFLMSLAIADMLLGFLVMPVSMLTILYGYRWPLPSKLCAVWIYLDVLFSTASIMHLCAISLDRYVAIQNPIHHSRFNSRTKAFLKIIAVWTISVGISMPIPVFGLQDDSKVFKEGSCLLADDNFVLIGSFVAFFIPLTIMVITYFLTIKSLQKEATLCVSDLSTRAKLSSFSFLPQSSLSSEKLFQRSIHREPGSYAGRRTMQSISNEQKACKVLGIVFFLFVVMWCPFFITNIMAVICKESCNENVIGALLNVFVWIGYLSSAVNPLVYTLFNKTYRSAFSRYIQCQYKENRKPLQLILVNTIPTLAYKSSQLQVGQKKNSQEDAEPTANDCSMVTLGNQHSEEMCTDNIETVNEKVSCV

[23] = molecular target: T7, Runt-related transcription factor 1/Core-binding factor subunit beta; assay: Runt domain/CBFb-SMMHC interaction disruptors – biochemical, TR-FRET (AID 1438); format: protein assay
Mu-type opioid receptor [24] = molecular target: T3, Mu-type opioid receptor; format: functional, cell-based
[25] = molecular target: T8, DNA repair protein RAD52 homolog (Homo sapiens, UniProt P43351); format: functional, biochemical
T8 sequence (P43351 whole entry): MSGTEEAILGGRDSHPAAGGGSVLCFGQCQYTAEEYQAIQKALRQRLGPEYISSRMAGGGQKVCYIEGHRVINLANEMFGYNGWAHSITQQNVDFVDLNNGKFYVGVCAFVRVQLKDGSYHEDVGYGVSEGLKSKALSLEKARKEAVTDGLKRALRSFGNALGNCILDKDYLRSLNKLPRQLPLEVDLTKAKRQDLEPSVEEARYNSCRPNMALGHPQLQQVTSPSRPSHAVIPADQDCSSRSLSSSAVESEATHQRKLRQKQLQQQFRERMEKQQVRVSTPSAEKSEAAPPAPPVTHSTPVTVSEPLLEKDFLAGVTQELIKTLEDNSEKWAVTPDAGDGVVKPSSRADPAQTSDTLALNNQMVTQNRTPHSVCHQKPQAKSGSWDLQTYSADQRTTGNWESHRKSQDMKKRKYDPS

[26] = molecular target: T7, Runt-related transcription factor 1/Core-binding factor subunit beta; assay: Confirmation of compounds inhibiting the binding between the RUNX1 Runt domain and CBFb-SMMHC via a fluorescence resonance energy transfer (FRET) assay. [Related pubchem assays (depositor defined):AID1434, AID1438, AID1496, AID1550, AID1645]; format: protein assay
[27] = molecular target: Glutathione-S-transferase (Schistosoma japonicum, UniProt Q26513); assay: GST-antibody interaction or FRET quenching – biochemical, TR-FRET, artefact control for Vif-APOBEC3G degradation inhibitor project, dose response (AID 1117362); format: functional
Chain of Glutathione-S-transferase (Q26513 whole entry, the tested form may be a part): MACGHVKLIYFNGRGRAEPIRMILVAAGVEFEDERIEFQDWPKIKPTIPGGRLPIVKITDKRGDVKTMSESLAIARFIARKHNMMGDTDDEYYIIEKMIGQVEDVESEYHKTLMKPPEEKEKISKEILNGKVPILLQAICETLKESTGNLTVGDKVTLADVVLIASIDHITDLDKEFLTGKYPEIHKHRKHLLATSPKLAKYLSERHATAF

[28] = molecular target: T7, Runt-related transcription factor 1/Core-binding factor subunit beta; assay: Confirmation of compounds inhibiting the binding between the RUNX1 Runt domain and CBFb-SMMHC via a time resolved fluorescence resonance energy transfer (TR-FRET) assay. [Related pubchem assays (depositor defined):AID1434, AID1438, AID1496, AID1560, AID1645]; format: protein assay

IC50 (Large T antigen): 27.7 µM (active)
EC50 [1]: 11.8 µM (not active)
EC50 [2]: 93.5 µM (inactive)
SMILES: C/C(=N/NC(N)=S)c1cc2ccc(O)cc2oc1=O

IC50 [3]: > 100 µM (inactive)
IC50 [4]: > 100 µM (not active)
SMILES: COc1ccc(NC(=O)Cc2ccc(C)cc2)c([N+](=O)[O-])c1

EC50 [5]: > 79.4 µM (not active)
EC50 [6]: > 79.4 µM (inactive)
EC50 [7]: 121 µM (not active)
SMILES: CCOc1ccc(CCNC(=O)CSc2cc(=O)n(CC)c3ccccc23)cc1OCC

IC50 [8]: > 100 µM (inactive)
SMILES: O=C1NCC2=C1C(c1ccccc1)Nc1ccccc1N2 (stereo not given)

EC50 [9]: > 20 µM (inactive)
EC50 [10]: > 64 µM (inactive)
EC50 (Mu-type opioid receptor [11]): > 32 µM (inactive)
EC50 [12]: > 32 µM (inactive)
SMILES: Fc1cccc(F)c1CSc1nnc(-c2ccccn2)n1Cc1ccco1

SMILES: CN1CCc2cccc3c2[C@H]1Cc1ccc(O)c(O)c1-3 [APOMORPHINE HYDROCHLORIDE]
IC50 [13]: 14.6 µM (active)
IC50 [14]: 4.38 µM (active)
IC50 (Large T antigen): > 100 µM (active) and 15.3 µM (active)
EC50 [15]: 4.42 µM (active)
EC50 [16]: 16.9 µM (inconclusive)
IC50 [17]: 9.66 µM (active)
CC50 [18]: 16.9 µM (active)
IC50 [19]: 34.6 µM (inactive)
IC50 [20]: 26.2 µM (active)
IC50 [21]: > 64 µM (inactive)
EC50 [22]: 6.41 nM (active) and 8.15 nM (active)
IC50 [23]: 9.81 µM (active)
EC50 (Mu-type opioid receptor [24]): 92.5 µM (inactive) and 92.4 µM (inactive)
AC50 [25]: 7.1 µM (active)
IC50 [26]: 13.4 µM (active)
IC50 [27]: 74.8 µM (active)
IC50 [28]: 18.9 µM (active)
